Where a name gives a salt, the structure may show the parent alone.
Target: T1, TYK2 kinase domain (Homo sapiens, UniProt P29597)
T1 construct: The activity of the isolated JAK1, JAK2 or TYK2 kinase domain was measured
T1 sequence (P29597 897-1176 limits assumed): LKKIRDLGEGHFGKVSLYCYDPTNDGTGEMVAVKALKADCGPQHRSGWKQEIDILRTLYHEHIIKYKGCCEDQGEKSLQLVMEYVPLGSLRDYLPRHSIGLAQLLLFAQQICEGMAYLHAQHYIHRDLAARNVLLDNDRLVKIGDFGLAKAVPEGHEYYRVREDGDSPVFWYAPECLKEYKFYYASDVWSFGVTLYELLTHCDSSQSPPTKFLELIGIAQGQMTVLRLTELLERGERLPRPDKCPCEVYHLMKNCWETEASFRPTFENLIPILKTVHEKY
Assay: JAK1, JAK2 and TYK2 Inhibition Assay Protocol (Example A): TYK2 kinase domain, Caliper LabChip peptide phosphorylation
Format: biochemical
Conditions: isolated TYK2 kinase domain, 1 nM enzyme, 25 uM ATP, Morrison tight binding model
Experimental: The activity of the isolated JAK1, JAK2 or TYK2 kinase domain was measured by monitoring phosphorylation of a peptide derived from JAK3 (Val-Ala-Leu-Val-Asp-Gly-Tyr-Phe-Arg-Leu-Thr-Thr) fluorescently labeled on the N-terminus with 5-carboxyfluorescein using the Caliper LabChip technology (Caliper Life Sciences, Hopkinton, Mass.). To determine the inhibition constants (Ki) of Examples 1-165, compounds were diluted serially in DMSO and added to 50 μL kinase reactions containing 1.5 nM JAK1, 0.2 nM purified JAK2 or 1 nM purified TYK2 enzyme, 100 mM Hepes pH7.2, 0.015% Brij-35, 1.5 uM peptide substrate, 25 uM ATP, 10 mM MgCl2, 4 mM DTT at a final DMSO concentration of 2%. Reactions were incubated at 22° C. in 384-well polypropylene microtiter plates for 30 minutes and then stopped by addition of 25 μL of an EDTA containing solution (100 mM Hepes pH 7.2, 0.015% Brij-35, 150 mM EDTA), resulting in a final EDTA concentration of 50 mM. After termination of the kinase reaction, the proportion of phosphorylated product was determined as a fraction of total peptide substrate using the Caliper LabChip 3000 according to the manufacturer's specifications. Ki values were then determined using the Morrison tight binding model. Morrison, J. F., Biochim. Biophys. Acta. 185:269-296 (1969); William, J. W. and Morrison, J. F., Meth. Enzymol., 63:437-467 (1979).

Row | Structure (SMILES) | Ki
1 | O=C(Nc1nccc2nn(-c3c(Cl)cccc3Cl)cc12)C1CC1 [Example 1, N-(2-(2,6-Dichlorophenyl)-2H-pyrazolo[4,3-c]pyridin-4-yl)cyclopropanecarboxamide] | 1.3 nM
2 | Cc1cc(Nc2nccc3nn(-c4c(Cl)cccc4Cl)cc23)nc(C)n1 [Example 2, [2-(2,6-Dichlorophenyl)-2H-pyrazolo[4,3-c]pyridine-4-yl]-(2,6-dimethylpyrimidin-4-yl)amine] | 2 nM
3 | N#Cc1ccc(Nc2nccc3nn(-c4c(Cl)cccc4Cl)cc23)nc1 [Example 3, 6-[2-(2,6-Dichlorophenyl)-2H-pyrazolo[4,3-c]pyridin-4-ylamino]nicotinonitrile] | 3 nM
4 | COC(=O)Nc1nccc2nn(-c3c(Cl)cccc3Cl)cc12 [Example 6, [2-(2,6-Dichlorophenyl)-2H-pyrazolo[4,3-c]pyridine-4-yl]carbamic acid methyl ester] | 5.2 nM
5 | CNC(=O)Nc1nccc2nn(-c3c(Cl)cccc3Cl)cc12 [Example 7, 1-[2-(2,6-Dichlorophenyl)-2H-pyrazolo[4,3-c]pyridine-4-yl]-3-methylurea] | 3.3 nM
6 | O=C(Nc1nccc2nn(-c3c(F)cccc3Cl)cc12)C1CC1 [Example 15, N-(2-(2-chloro-6-fluorophenyl)-2H-pyrazolo[4,3-c]pyridin-4-yl)cyclopropanecarboxamide] | 1.6 nM
7 | Cc1cc(Nc2ncc(Cl)c3nn(-c4c(Cl)cc(C#N)cc4Cl)cc23)ncn1 [Example 30, 3,5-Dichloro-4-[7-chloro-4-(6-methylpyrimidin-4-ylamino)pyrazolo[4,3-c]pyridin-2-yl]benzonitrile] | 5.6 nM
8 | N#Cc1cc(Cl)c(-n2cc3c(Nc4cc(N)ncn4)ncc(F)c3n2)c(Cl)c1 [Example 34, 4-[4-(6-Amino-pyrimidin-4-ylamino)-7-fluoro-pyrazolo[4,3-c]pyridin-2-yl]-3,5-dichlorobenzonitrile.HCl] | 0.4 nM
9 | OCc1cc(Nc2ncc(Br)c3nn(-c4c(Cl)cccc4Cl)cc23)ncn1 [Example 37, {6-[7-Bromo-2-(2,6-dichloro-phenyl)-2H-pyrazolo[4,3-c]pyridin-4-ylamino]-pyrimidin-4-yl}-methanol] | 0.4 nM
10 | N#Cc1cnc(Nc2cc(N)ncn2)c2cn(-c3c(Cl)cccc3Cl)nc12 [Example 40, 4-(6-Aminopyrimidin-4-ylamino)-2-(2,6-dichlorophenyl)-2H-pyrazolo[4,3-c]pyridine-7-carbonitrile] | 1.1 nM
11 | OCCN1CCN(c2cc(Nc3nccc4nn(-c5c(Cl)cccc5Cl)cc34)ncn2)CC1 [Example 49, 2-(4-(6-((2-(2,6-dichlorophenyl)-2H-pyrazolo[4,3-c]pyridin-4-yl)amino)-pyrimidin-4-yl)piperazin-1-yl)ethan-1-ol] | 1.9 nM
12 | Cc1cc(Nc2nccc3nn(-c4c(Cl)cccc4Cl)cc23)ncc1C#N [Example 53, 6-[2-(2,6-Dichlorophenyl)-2H-pyrazolo[4,3-c]pyridin-4-ylamino]-4-methyl-nicotinonitrile] | 1 nM
13 | CS(=O)(=O)c1cc(Cl)c(-n2cc3c(NC(=O)C4CC4)nccc3n2)c(Cl)c1 [Example 67, N-(2-(2,6-dichloro-4-methane-sulphonyl-phenyl)-2H-pyrazolo[4,3-c]pyridine-4-yl)cyclopropane-carboxamide] | 14.9 nM
14 | N#Cc1cc(Cl)c(-n2cc3c(NC(=O)C4CC4)nccc3n2)c(Cl)c1 [Example 69, N-(2-(2,6-dichloro-4-cyanophenyl)-2H-pyrazolo[4,3-c]pyridin-4-yl)cyclopropane-carboxamide] | 2 nM
15 | Nc1cc(Nc2nccc3nn(-c4c(F)ccc(F)c4Cl)cc23)ncn1 [Example 81, N4-(2-(2-chloro-3,6-difluorophenyl)-2H-pyrazolo[4,3-c]pyridin-4-yl)pyrimidine-4,6-diamine] | 2.2 nM
16 | CC(O)c1cc(Nc2ncc(F)c3nn(-c4c(Cl)cccc4C#N)cc23)ncn1 (stereo not shown) [Example 96, 3-Chloro-2-{7-fluoro-4-[6-(1-hydroxyethyl)-pyrimidin-4-ylamino]-pyrazolo[4,3-c]pyridin-2-yl}-benzonitrile] | 0.8 nM
17 | N#Cc1cc(N)cc(Cl)c1-n1cc2c(Nc3cc(N)ncn3)ncc(F)c2n1 [Example 101, 5-Amino-2-[4-(6-aminopyrimidin-4-ylamino)-7-fluoropyrazolo[4,3-c]pyridin-2-yl]-3-chlorobenzonitrile formate salt] | 105 nM
18 | N#Cc1cccc(Cl)c1-n1cc2c(Nc3cc(N)ncn3)ncc(Cl)c2n1 [Example 151, 2-(4-(6-aminopyrimidin-4-ylamino)-7-chloro-2H-pyrazolo[4,3-c]pyridin-2-yl)-3-chlorobenzonitrile] | 0.1 nM
19 | Cc1cc(Nc2cc(Cl)c(-n3cc4c(Nc5cc(C)ncn5)nccc4n3)c(C#N)c2)ncn1 [Example 158, 3-chloro-5-(6-methylpyrimidin-4-ylamino)-2-(4-(6-methylpyrimidin-4-ylamino)-2H-pyrazolo[4,3-c]pyridin-2-yl)benzonitrile] | 1.8 nM
